The source of these data is patent US20250276983A1, “COMPOUNDS AND METHODS FOR MODULATING HER2” (IAMBIC THERAPEUTICS, INC., priority 2022, published 2025).

One may read the IC50 as the concentration that inhibits the measured activity by half.

One experiment addresses wtEGFR (Homo sapiens (Human), UniProt P00533). The experiment can be described thus: HotSpot radiometric kinase activity assay, wtEGFR. Format: biochemical. Particulars: 4 nM wtEGFR, 10 μM 33P-ATP, 20 min preincubation, 2 hours, read-out: EGFR WT IC50. The method, then:
(§1) The purpose of the wtERBB2, ERBB2-A775_G776insYVMA (ERBB2YVMA), wtEGFR biochemical assay was to evaluate the inhibition (% inhibition and IC50 values) of the small molecule inhibitors by using the “HotSpot” radiometric kinase activity assay. HotSpot assays monitor the […] of kinase substrate by the radioactive gamma phosphate of adenosine triphosphate (33P-ATP) during biochemical reactions. HotSpot assays was performed in steps upon completion of the kinase reaction: deposition of a reaction mixture aliquot onto P81 ion exchange paper, extensive washing of the aforementioned P81 paper using phosphoric acid to remove unbound radiolabeled 33P-ATP from the P81 paper, and finally visualization and quantification of the dried P81 paper utilizing a phosphoimager. […] Typical reaction solutions (10 μL final reaction volume) contained the following buffer conditions: 20 mM Hepes (pH 7.5), 10 mM MgCl2, 1 mM EGTA, 0.01% Brij35, 0.02 mg/mL BSA, 0.1 mM Na3VO4, 2 mM DTT, 1% DMSO. The assay was primed by preparing a fresh 0.2 mg/mL solution of pEY (Sigma Cat: P7244) substrate in the reaction buffer and supplementing that solution with […] of MnCl2 as substrate cofactor (Sigma Cat: M9522). The kinase of interest was then added to the solution at the appropriate concentration (30 nM wtERBB2 from, or 20 nM ERBB2YVMA, or 4 nM wtEGFR) and gently mixed prior to delivery of compound in 100% DMSO by acoustic dispensing (Beckman Echo550). Compound, Kinase, and substrate were allowed to incubate for 20 min at room temperature prior to the initiation of the reaction by addition of 33P-ATP (PerkinElmer Cat: NEG602, final conc 10 μM). […] IC50 determinations were made from a plot of kinase activity as a function of inhibitor concentration fit to the 4-parameter IC50 equation with the enzyme concentration held constant using GraphPad Prism (San Diego).

A further experiment deals with BaF3_EGFRWT cells. The experiment can be described thus: Cell growth inhibition assay, BaF3_EGFRWT. Format: cell-based. The following applies: 72 h, 80 ng/mL recombinant human EGF, 3 days treatment, CellTiterGlo 2.0, read-out: EGFR WT IC50 (nM), cell growth inhibition. (Cellular ATP, detected with luciferase, serves as a proxy for viable cell number.)
A further experiment addresses wtERBB2 (Homo sapiens (Human), UniProt P04626). The experiment can be described thus: HotSpot radiometric kinase activity assay, wtERBB2. Format: biochemical. Particulars: 30 nM wtERBB2, 10 μM 33P-ATP, 20 min preincubation, 2 hours, read-out: HER2 WT IC50. How it is done: as §1
Another experiment relates to BaF3_HER2YVMA cells. The experiment can be described thus: Cell growth inhibition assay, BaF3_HER2YVMA. Format: cell-based. The following applies: 72 h, BaF3_HER2YVMA cells, 3 days treatment, CellTiterGlo 2.0; read-out: HER2-YVMA IC50 (nM), cell growth inhibition.
A further experiment deals with BaF3_HER2WT cells. The experiment can be described thus: Cell growth inhibition assay, BaF3_HER2WT. It counts as cell-based. The following applies: 72 h, 3 days treatment, CellTiterGlo 2.0, read-out: HER2 WT IC50 (nM), cell growth inhibition.

wtEGFR, sequence (P00533 25-1210): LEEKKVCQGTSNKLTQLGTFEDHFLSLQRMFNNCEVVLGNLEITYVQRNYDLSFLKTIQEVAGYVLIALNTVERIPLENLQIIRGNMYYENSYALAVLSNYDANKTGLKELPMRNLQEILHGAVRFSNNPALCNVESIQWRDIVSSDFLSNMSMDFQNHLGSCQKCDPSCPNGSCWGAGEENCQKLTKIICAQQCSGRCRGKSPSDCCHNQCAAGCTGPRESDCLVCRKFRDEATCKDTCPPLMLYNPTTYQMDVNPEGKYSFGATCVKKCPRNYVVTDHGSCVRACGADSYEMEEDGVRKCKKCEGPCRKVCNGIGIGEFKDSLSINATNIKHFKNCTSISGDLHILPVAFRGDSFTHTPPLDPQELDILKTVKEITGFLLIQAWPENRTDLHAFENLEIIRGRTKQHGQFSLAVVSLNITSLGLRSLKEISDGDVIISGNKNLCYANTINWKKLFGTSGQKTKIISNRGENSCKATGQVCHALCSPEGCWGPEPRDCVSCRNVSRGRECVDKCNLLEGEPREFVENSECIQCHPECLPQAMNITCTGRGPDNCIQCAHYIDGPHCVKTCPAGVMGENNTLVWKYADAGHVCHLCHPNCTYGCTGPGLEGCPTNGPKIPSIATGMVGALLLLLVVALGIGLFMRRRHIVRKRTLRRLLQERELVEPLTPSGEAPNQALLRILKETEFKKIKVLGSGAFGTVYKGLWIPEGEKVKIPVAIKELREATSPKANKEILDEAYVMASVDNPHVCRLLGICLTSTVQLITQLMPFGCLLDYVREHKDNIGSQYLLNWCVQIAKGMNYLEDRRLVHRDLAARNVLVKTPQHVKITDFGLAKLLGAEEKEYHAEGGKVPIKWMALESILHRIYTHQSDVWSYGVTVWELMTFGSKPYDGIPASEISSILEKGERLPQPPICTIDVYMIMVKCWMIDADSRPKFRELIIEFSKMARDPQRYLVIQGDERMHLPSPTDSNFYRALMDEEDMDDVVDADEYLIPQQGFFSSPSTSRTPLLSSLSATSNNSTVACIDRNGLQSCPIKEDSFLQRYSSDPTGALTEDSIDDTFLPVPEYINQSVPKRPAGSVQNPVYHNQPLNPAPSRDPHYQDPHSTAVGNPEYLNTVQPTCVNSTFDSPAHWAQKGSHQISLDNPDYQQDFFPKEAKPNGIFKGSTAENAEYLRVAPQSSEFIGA
wtERBB2, sequence (P04626 23-1255): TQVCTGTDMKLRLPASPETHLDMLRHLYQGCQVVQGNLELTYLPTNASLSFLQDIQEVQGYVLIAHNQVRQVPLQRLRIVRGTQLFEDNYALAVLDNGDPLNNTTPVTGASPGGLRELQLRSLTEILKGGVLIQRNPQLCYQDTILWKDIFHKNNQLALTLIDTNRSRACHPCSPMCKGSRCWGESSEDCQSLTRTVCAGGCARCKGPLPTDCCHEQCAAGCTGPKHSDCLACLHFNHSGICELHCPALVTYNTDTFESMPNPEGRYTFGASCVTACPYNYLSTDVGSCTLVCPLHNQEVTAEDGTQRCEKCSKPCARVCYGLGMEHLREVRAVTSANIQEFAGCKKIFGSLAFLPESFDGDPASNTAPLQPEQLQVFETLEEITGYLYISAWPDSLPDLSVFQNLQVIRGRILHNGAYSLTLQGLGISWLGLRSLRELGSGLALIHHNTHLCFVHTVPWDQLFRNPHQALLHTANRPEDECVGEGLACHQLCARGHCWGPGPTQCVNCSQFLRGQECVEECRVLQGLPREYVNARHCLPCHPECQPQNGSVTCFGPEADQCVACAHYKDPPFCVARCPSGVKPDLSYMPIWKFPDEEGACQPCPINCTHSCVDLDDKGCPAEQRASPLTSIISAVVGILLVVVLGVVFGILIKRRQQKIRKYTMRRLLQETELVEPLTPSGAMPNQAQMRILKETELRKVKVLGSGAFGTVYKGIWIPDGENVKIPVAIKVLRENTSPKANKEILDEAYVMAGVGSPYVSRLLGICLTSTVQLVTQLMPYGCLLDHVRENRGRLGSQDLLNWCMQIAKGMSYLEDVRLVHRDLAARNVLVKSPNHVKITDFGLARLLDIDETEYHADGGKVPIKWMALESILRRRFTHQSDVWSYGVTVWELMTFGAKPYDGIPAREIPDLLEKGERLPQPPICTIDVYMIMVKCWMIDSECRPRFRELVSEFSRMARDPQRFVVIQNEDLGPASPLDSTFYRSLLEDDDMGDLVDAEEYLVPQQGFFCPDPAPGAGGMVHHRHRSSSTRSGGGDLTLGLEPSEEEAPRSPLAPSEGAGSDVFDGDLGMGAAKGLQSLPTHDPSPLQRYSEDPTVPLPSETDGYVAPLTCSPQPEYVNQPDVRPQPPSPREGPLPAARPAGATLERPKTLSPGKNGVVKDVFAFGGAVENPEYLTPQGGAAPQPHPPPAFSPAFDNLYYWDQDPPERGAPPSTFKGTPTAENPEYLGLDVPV

Regarding `COC1CCN(C/C=C/C(=O)N2CCC(c3ccn4ncnc(Nc5ccc(Oc6ccc7c(c6)ncn7C)c(C)c5)c34)CC2)C1` (racemic) [Example 106, (E)-4-(3-methoxypyrrolidin-1-yl)-1-(4-(4-((3-methyl-4-((1-methyl-1H-benzo[d]imidazol-5-yl)oxy)phenyl)amino)pyrrolo[2,1-f][1,2,4]triazin-5-yl)piperidin-1-yl)but-2-en-1-one], the IC50 at wtEGFR was under 200 nM; in the experiment with BaF3_EGFRWT cells, 1500 to 5000 nM.
With `Cc1cc(Nc2ncnn3ccc([C@@H]4CCN(C(=O)/C=C/CN(C)C)C4)c23)ccc1Oc1ccn2ncnc2c1` (single isomer, unassigned) [Example 99], the IC50 on wtERBB2 and at wtEGFR was under 200 nM each time.
With `Cc1cc(Nc2ncnn3ccc([C@@H]4CCCN(C(=O)/C=C/CN(C)C)CC4)c23)ccc1Oc1ccn2ncnc2c1` (single isomer, unassigned) [Example 109], the IC50 at wtERBB2 and on wtEGFR was under 200 nM throughout.
As for `C=CC(=O)N1CCC[C@@H](c2ccn3ncnc(Nc4ccc(Oc5ccn6ncnc6c5)c(C)c4)c23)CC1` (single isomer, unassigned) [Example 111], the IC50 on wtERBB2 and at wtEGFR was under 200 nM throughout.
Regarding `Cc1cc(Nc2ncnn3ccc(C4CN(C(=O)/C=C/CN(C)C)C4)c23)ccc1Oc1ccn2ncnc2c1` [Example 1, (E)-1-(3-(4-((4-([1,2,4]triazolo[1,5-a]pyridin-7-yloxy)-3-methylphenyl)amino)pyrrolo[2,1-f][1,2,4]triazin-5-yl)azetidin-1-yl)-4-(dimethylamino)but-2-en-1-one], the IC50 at wtERBB2 is under 200 nM; at wtEGFR, under 200 nM; with BaF3_HER2YVMA cells, under 200 nM; with BaF3_HER2WT cells, under 200 nM; with BaF3_EGFRWT cells, 1500 to 5000 nM.
Turning to `C=CC(=O)N1CC(n2cc(-c3ccn4ncnc(Nc5ccc(Oc6ccn7ncnc7c6)c(C)c5)c34)cn2)C1` [Example 2, 1-(3-(4-(4-((4-([1,2,4]triazolo[1,5-a]pyridin-7-yloxy)-3-methylphenyl)amino)pyrrolo[2,1-f][1,2,4]triazin-5-yl)-1H-pyrazol-1-yl)azetidin-1-yl)prop-2-en-1-one], the IC50 on wtERBB2 was under 200 nM; at wtEGFR, under 200 nM; in the experiment with BaF3_HER2YVMA cells it was under 200 nM; with BaF3_HER2WT cells, under 200 nM; in the experiment on BaF3_EGFRWT cells it was 1500 to 5000 nM.
In the case of `C=CC(=O)N1CCN(c2ccn3ncnc(Nc4ccc(Oc5ccn6ncnc6c5)c(C)c4)c23)CC1` [Example 6, 1-(4-(4-((4-([1,2,4]triazolo[1,5-a]pyridin-7-yloxy)-3-methylphenyl)amino)pyrrolo[2,1-f][1,2,4]triazin-5-yl)piperazin-1-yl)prop-2-en-1-one], the IC50 at wtERBB2 is under 200 nM; on wtEGFR, under 200 nM; in the experiment with BaF3_HER2YVMA cells, under 200 nM; in the experiment with BaF3_HER2WT cells it was under 200 nM; in the experiment on BaF3_EGFRWT cells, 500 to 1500 nM.
On to `C=CC(=O)N1CCC(c2ccn3ncnc(Nc4ccc(Oc5ccn6ncnc6c5)c(C)c4)c23)CC1` [Example 7, 1-(4-(4-((4-([1,2,4]triazolo[1,5-a]pyridin-7-yloxy)-3-methylphenyl)amino)pyrrolo[2,1-f][1,2,4]triazin-5-yl)piperidin-1-yl)prop-2-en-1-one], for which the IC50 on wtERBB2 was under 200 nM; at wtEGFR, under 200 nM; with BaF3_HER2YVMA cells, under 200 nM; in the experiment on BaF3_HER2WT cells, under 200 nM; in the experiment on BaF3_EGFRWT cells, 200 to 500 nM.
As for `C=CC(=O)N1CCCN(c2ccn3ncnc(Nc4ccc(Oc5ccn6ncnc6c5)c(C)c4)c23)CC1` [Example 8, 1-(4-(4-((4-([1,2,4]triazolo[1,5-a]pyridin-7-yloxy)-3-methylphenyl)amino)pyrrolo[2,1-f][1,2,4]triazin-5-yl)-1,4-diazepan-1-yl)prop-2-en-1-one], the IC50 at wtERBB2 was under 200 nM; on wtEGFR, under 200 nM; in the experiment with BaF3_HER2YVMA cells, under 200 nM; in the experiment with BaF3_HER2WT cells, under 200 nM; with BaF3_EGFRWT cells, 500 to 1500 nM.
For the compound `Cc1cc(Nc2ncnn3ccc(C4CCCN(C(=O)/C=C/CN(C)C)C4)c23)ccc1Oc1ccn2ncnc2c1` (centres unmarked) [Example 96, (E)-1-(3-(4-((4-([1,2,4]triazolo[1,5-a]pyridin-7-yloxy)-3-methylphenyl)amino)-pyrrolo-[2,1-f][1,2,4]-triazin-5-yl)piperidin-1-yl)-4-(dimethylamino)but-2-en-1-one], the IC50 on wtERBB2 was under 200 nM; in the experiment with BaF3_HER2YVMA cells, 500 to 1500 nM; in the experiment with BaF3_HER2WT cells, under 200 nM; with BaF3_EGFRWT cells it was 1500 to 5000 nM.
`Cc1cc(Nc2ncnn3ccc(C4CN(C(=O)/C=C/CN5CCC5)C4)c23)ccc1Oc1ccn2ncnc2c1` [Example 102, (E)-1-(3-(4-((4-([1,2,4]triazolo[1,5-a]pyridin-7-yloxy)-3-methylphenyl)amino)pyrrolo[2,1-f][1,2,4]triazin-5-yl)azetidin-1-yl)-4-(azetidin-1-yl)but-2-en-1-one]: the IC50 is under 200 nM on wtERBB2, 1500 to 5000 nM with BaF3_HER2YVMA cells, 500 to 1500 nM in the experiment with BaF3_HER2WT cells and 1500 to 5000 nM with BaF3_EGFRWT cells.
As to `Cc1cc(Nc2ncnn3ccc(-c4cnn(CCNC(=O)/C=C/CN(C)C)c4)c23)ccc1Oc1ccn2ncnc2c1` [Example 103, (E)-N-(2-(4-(4-((4-([1,2,4]triazolo[1,5-a]pyridin-7-yloxy)-3-methylphenyl)amino)pyrrolo[2,1-f][1,2,4]triazin-5-yl)-1H-pyrazol-1-yl)ethyl)-4-(dimethylamino)but-2-enamide], the IC50 on wtERBB2 is under 200 nM; with BaF3_HER2YVMA cells, 1500 to 5000 nM; in the experiment with BaF3_HER2WT cells, 1500 to 5000 nM; in the experiment on BaF3_EGFRWT cells it was 1500 to 5000 nM.
With `C=CC(=O)N1CCC[C@H](c2ccn3ncnc(Nc4ccc(Oc5ccn6ncnc6c5)c(C)c4)c23)CC1` [Example 112, (S)-1-(4-(4-((4-([1,2,4]triazolo[1,5-a]pyridin-7-yloxy)-3-methylphenyl)amino)pyrrolo[2,1-f][1,2,4]triazin-5-yl)azepan-1-yl)prop-2-en-1-one], the IC50 on wtERBB2 and at wtEGFR was under 200 nM in each case.
As for `C=CC(=O)N1CCC2(C1)CN(c1ccn3ncnc(Nc4ccc(Oc5ccn6ncnc6c5)c(C)c4)c13)C2` [Example 155, 1-(2-{4-[(3-methyl-4-{[1,2,4]triazolo[1,5-a]pyridin-7-yloxy}phenyl)amino]pyrrolo[2,1-f][1,2,4]triazin-5-yl}-2,6-diazaspiro[3.4]octan-6-yl)prop-2-en-1-one], the IC50 on wtERBB2 is under 200 nM; in the experiment on BaF3_HER2YVMA cells it was 200 to 500 nM; in the experiment with BaF3_HER2WT cells, under 200 nM; in the experiment with BaF3_EGFRWT cells, 1500 to 5000 nM.
Consider `Cc1cc(Nc2ncnn3ccc(N4CC5(CCN(C(=O)/C=C/CN(C)C)C5)C4)c23)ccc1Oc1ccn2ncnc2c1` [Example 156, (2E)-4-(dimethylamino)-1-(2-{4-[(3-methyl-4-{[1,2,4]triazolo[1,5-a]pyridin-7-yloxy}phenyl)amino]pyrrolo[2,1-f][1,2,4]triazin-5-yl}-2,6-diazaspiro[3.4]octan-6-yl)but-2-en-1-one], for which the IC50 on wtERBB2 was under 200 nM; in the experiment on BaF3_HER2YVMA cells, 1500 to 5000 nM; with BaF3_HER2WT cells, 200 to 500 nM; in the experiment on BaF3_EGFRWT cells it was 1500 to 5000 nM.
As for `Cc1cc(Nc2ncnn3ccc(C(=O)NCCCN(C)C)c23)ccc1Oc1ccn2ncnc2c1` [Example 178, 4-((4-([1,2,4]triazolo[1,5-a]pyridin-7-yloxy)-3-methylphenyl)amino)-N-(3-(dimethylamino)-propyl)pyrrolo[2,1-f][1,2,4]triazine-5-carboxamide], the IC50 was under 200 nM on wtERBB2, 1500 to 5000 nM in the experiment on BaF3_HER2YVMA cells, 200 to 500 nM in the experiment on BaF3_HER2WT cells and over 5000 nM in the experiment with BaF3_EGFRWT cells.
